In patent publication US20200017495A1, “NOVEL HETEROCYCLIC COMPOUNDS AND THEIR USE IN PREVENTING OR TREATING BACTERIAL INFECTIONS” (priority 2017, published 2020):
Where two headings read alike, the source gives them in different places.

What was measured:
Assay in all cases: MIC of compounds alone and combined with antibacterials, broth microdilution (CLSI)
Type in all cases: cell-based
[1] = test system: Klebsiella pneumoniae (KPN) isolates
Method in brief: (§1)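 Broth microdilution in cation-adjusted Mueller-Hinton broth, inoculum 5.10^5 CFU/mL, 16-20 h at 35° C in ambient air, on genotyped isolates. Compound MIC, alone or with an antibacterial, taken visually as lowest concentration preventing growth; antibacterial MIC determined at each compound concentration.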

[2] = test system: Citrobacter freundii (CFR) isolates
Method in brief: as §1

[3] = test system: Klebsiella oxytoca (KOX) isolates
Method in brief: as §1

## CC1(C)S[C@@H]2[C@H](NC(=O)[C@H](N)c3ccc(O)cc3)C(=O)N2[C@H]1C(=O)O [AMX, Amoxicillin]
[1]; strain KPN UFR24, genotype TEM-1, SHV-2, SHV-11, OXA-1, OXA-48, OXA-47
  MIC: >256 µg/mL
[1]; strain KPN UFR25, genotype TEM-1, SHV-11, CTX-M-15, OXA-162
  MIC: >256 µg/mL
[1]; strain KPN UFR27, genotype TEM-1, SHV-28, CTX-M-15, OXA-204
  MIC: >256 µg/mL
[1]; strain KPN UFR28, genotype TEM-1, SHV-1, CTX-M-15, OXA-1, OXA-232
  MIC: >256 µg/mL
[1]; strain KPN UFR33, genotype TEM-2, SHV-12, CTX-M-15, OXA-1, OXA-10
  MIC: >256 µg/mL
[1]; strain KPN UFR42, genotype SHV-2, CTX-M-15 OXA-1, OXA-181, NDM-1
  MIC: >256 µg/mL
[1]; strain KPN UFR43, genotype SHV-11, CTX-M-15, CMY-2, OXA-1, NDM-1
  MIC: >256 µg/mL
[1]; strain KPN UFR46, genotype TEM-1, SHV-12, CTX-M-15, OXA-9, VIM-1
  MIC: >256 µg/mL
[1]; strain KPN UFR53, genotype TEM-1, IMP-1
  MIC: >256 µg/mL
[1]; strain KPN UFR65, genotype TEM-1, SHV-11, KPC-2
  MIC: >256 µg/mL
[1]; strain KPN UFR66, genotype TEM-1, SHV-11, CTX-M-15, KPC-2
  MIC: >256 µg/mL
[1]; strain KPN UFR67, genotype TEM-1, SHV-11, KPC-3
  MIC: >256 µg/mL
[1]; strain KPN UFR68, genotype TEM-1, SHV-11, CTX-M-15, KPC-3
  MIC: >1024 µg/mL
[1]; strain KPN UFR76, genotype TEM-155, SHV-11, ACT-1, OXA-2
  MIC: >256 µg/mL
[1]; strain KPN UFR77, genotype CMY-2
  MIC: >256 µg/mL
[1]; strain KPN UFR78, genotype TEM-1, SHV-1, CTX-M-15, CMY-2, OXA-1, OXA-48
  MIC: >256 µg/mL
[1]; strain KPN UFR79, genotype DHA-1, OXA-1
  MIC: >256 µg/mL
[1]; strain KPN UFR80, genotype SHV-11, DHA-1, OXA-1
  MIC: >256 µg/mL
[1]; strain KPN UFR81, genotype TEM-1, SHV-1, DHA-1, OXA-48
  MIC: >256 µg/mL
[1]; strain KPN UFR162, genotype SHV-28, TEM-1, CTX-M-15, OXA-181, OXA-181, NDM-1, antibiotic alone
  MIC: >128 µg/mL
[1]; strain KPN UFR163, genotype TEM-1, SHV-1, CTX-M-15, OXA-232, OXA-9, NDM-1, qnrB1, qepA, RmtB, antibiotic alone
  MIC: >128 µg/mL
[1]; strain KPN UFR164, genotype SHV-11, CTX-M-15, OXA-1, OXA-181, NDM-1, antibiotic alone
  MIC: >128 µg/mL
[1]; strain KPN UFR165, genotype TEM-1, SHV-11, CTX-M-15, OXA-1, OXA-181, NDM-1, antibiotic alone
  MIC: >128 µg/mL
[1]; strain KPN UFR166, genotype TEM-1, TEM-1, CTX-M-15, OXA-181, OXA-9, NDM-1, antibiotic alone
  MIC: >128 µg/mL
[1]; strain KPN UFR167, genotype TEM-1, SHV-12, CTX-M-15, OXA-9, NDM-1, antibiotic alone
  MIC: >128 µg/mL
[1]; strain KPN UFR168, genotype SHV-2, CTX-M-15, OXA-1, OXA-181, NDM-1, ArmA, antibiotic alone
  MIC: >128 µg/mL
[1]; strain KPN UFR169, genotype TEM-1, SHV-28, CTX-M-15, CMY-4, OXA-1, NDM-1, antibiotic alone
  MIC: >128 µg/mL
[1]; strain KPN UFR170, genotype TEM-1, SHV-28, CTX-M-15, CMY-6, OXA-1, OXA-9, NDM-1, antibiotic alone
  MIC: >128 µg/mL
[1]; strain KPN UFR171, genotype TEM-1, SHV-28, CTX-M-15, OXA-1, OXA-10, NDM-1, RmtA, antibiotic alone
  MIC: >128 µg/mL
[1]; strain KPN UFR172, genotype SHV-38, CMY-16, OXA-10, NDM-1, antibiotic alone
  MIC: >128 µg/mL
[1]; strain KPN UFR215, genotype SHV-27, CTX-M-15
  MIC: >128 µg/mL
[1]; strain KPN UFR216, genotype SHV-28, CTX-M-15
  MIC: >128 µg/mL
[1]; strain KPN UFR217, genotype TEM-1, SHV-1, CTX-M-15
  MIC: >128 µg/mL
[1]; strain KPN UFR219, genotype SHV-12, CTX-M-15
  MIC: >128 µg/mL
[1]; strain KPN UFR220, genotype TEM-1, SHV-12, DHA-1
  MIC: >128 µg/mL
[1]; strain KPN UFR221, genotype TEM-1, SHV-11, CTX-M-14, DHA-1
  MIC: >128 µg/mL
[1]; strain KPN UFR229O, genotype SHV-12, VIM-1, antibiotic alone
  MIC: >128 µg/mL
[2]; CFR UFR10, AF2 @ 8 μg/mL
  MIC ATB in combination: 1 µg/mL
[2]; CFR UFR10, CLA @ 4 μg/mL
  MIC ATB in combination: >128 µg/mL
[2]; CFR UFR11, AF2 @ 8 μg/mL
  MIC ATB in combination: >128 µg/mL
[2]; CFR UFR11, CLA @ 4 μg/mL
  MIC ATB in combination: >128 µg/mL
[2]; CFR UFR37, AF2 @ 8 μg/mL
  MIC ATB in combination: <0.25 µg/mL
[2]; CFR UFR37, CLA @ 4 μg/mL
  MIC ATB in combination: >128 µg/mL
[2]; CFR UFR83, AF2 @ 8 μg/mL
  MIC ATB in combination: >128 µg/mL
[2]; CFR UFR83, CLA @ 4 μg/mL
  MIC ATB in combination: >128 µg/mL
[2]; CFR UFR146, CLA @ 4 μg/mL
  MIC ATB in combination: >128 µg/mL
[2]; CFR UFR248, CLA @ 4 μg/mL
  MIC ATB in combination: >128 µg/mL
[2]; CFR UFR249, CLA @ 4 μg/mL
  MIC ATB in combination: >128 µg/mL
[2]; CFR UFR250, CLA @ 4 μg/mL
  MIC ATB in combination: 128 µg/mL
[2]; strain CFR UFR10, genotype OXA-48
  MIC: >256 µg/mL
[2]; strain CFR UFR11, genotype TEM-1, OXA-1, OXA-48
  MIC: >256 µg/mL
[2]; strain CFR UFR37, genotype TEM-1, CTX-M-15, NDM-1
  MIC: >256 µg/mL
[2]; strain CFR UFR83, genotype TEM-3, AmpC
  MIC: >256 µg/mL
[2]; strain CFR UFR146, genotype TEM-1, KPC-2
  MIC: >128 µg/mL
[2]; strain CFR UFR147, genotype TEM-1, CTX-M-15, OXA-1, OXA-181, OXA-10, OXA-9, NDM-1, ArmA, dfrA12, aadA2, antibiotic alone
  MIC: >128 µg/mL
[2]; strain CFR UFR147, with CLA @ 4 μg/mL
  MIC ATB in combination: >128 µg/mL
[2]; strain CFR UFR148, genotype TEM-1, TEM-2, CTX-M-15, NDM-1, antibiotic alone
  MIC: >128 µg/mL
[2]; strain CFR UFR148, with CLA @ 4 μg/mL
  MIC ATB in combination: >128 µg/mL
[2]; strain CFR UFR248, genotype CTX-M-15
  MIC: >128 µg/mL
[2]; strain CFR UFR249, genotype TEM-1, CTX-M-15
  MIC: >128 µg/mL
[2]; strain CFR UFR250, genotype TEM-1, SHV-28, CTX-M-15
  MIC: >128 µg/mL
[2]; strain CFR UFR251, genotype SHV-11, VIM-1, antibiotic alone
  MIC: >128 µg/mL
[2]; strain CFR UFR251, with CLA @ 4 μg/mL
  MIC ATB in combination: >128 µg/mL
[2]; strain CFR UFR252, genotype VIM-2, antibiotic alone
  MIC: >128 µg/mL
[2]; strain CFR UFR252, with CLA @ 4 μg/mL
  MIC ATB in combination: >128 µg/mL
[2]; strain CFR UFR253, genotype TEM-1, SHV-12, OXA-48
  MIC: >128 µg/mL
[2]; strain CFR UFR253, with CLA @ 4 μg/mL
  MIC ATB in combination: >128 µg/mL
[2]; strain CFR UFR254, genotype VEB-1b, OXA-48, qnrA
  MIC: >128 µg/mL
[2]; strain CFR UFR254, with CLA @ 4 μg/mL
  MIC ATB in combination: >128 µg/mL
[3]
  MIC: >128 µg/mL
  MIC ATB in combination: >128 µg/mL
[3]; strain KOX UFR21, genotype TEM-1, CTX-M-15, OXA-48
  MIC: >256 µg/mL
[3]; strain KOX UFR223, genotype SHV-11, OXA-48
  MIC: >128 µg/mL
[3]; strain KOX UFR224, genotype CTX-M-15, OXA-48
  MIC: >128 µg/mL
